Assay results from ChEMBL document CHEMBL3856285, “Recent progress in the identification of adenosine monophosphate-activated protein kinase (AMPK) activators” (Bioorg Med Chem Lett, 2016).

Assays:
[1] = target: T1, AMP-activated protein kinase (AMPK) alpha-1/beta-1/gamma-1 (Homo sapiens, UniProt P54619+Q13131+Q9Y478); test: Activation of full length human His/GST-tagged AMPK alpha1/beta1/gamma1 expressed in baculovirus expression system after 1 hr by Z'Lyte assay
[2] = target: T2, AMP-activated protein kinase, AMPK (Homo sapiens) (UniProt P54646+O43741+P54619+Q9UGJ0+Q9Y478+Q13131+Q9UGI9); test: Activation of human recombinant AMPK assessed as increase in ADP accumulation using SAMS peptide after 30 mins by fluorescence assay
[3] = target: T3, 5'-AMP-activated protein kinase subunit beta-1 (Homo sapiens, UniProt Q9Y478); test: Activation of human recombinant AMPK beta1 expressed in African green monkey COS7 cells or baculovirus infected insect cells assessed as increase in biotinylated […] (1 to 120 residues) peptide phosphorylation at Ser-79 residue measured after 60 mins by Alphascreen assay; set-up: species or system COS-7
T3 sequence (Q9Y478 whole entry): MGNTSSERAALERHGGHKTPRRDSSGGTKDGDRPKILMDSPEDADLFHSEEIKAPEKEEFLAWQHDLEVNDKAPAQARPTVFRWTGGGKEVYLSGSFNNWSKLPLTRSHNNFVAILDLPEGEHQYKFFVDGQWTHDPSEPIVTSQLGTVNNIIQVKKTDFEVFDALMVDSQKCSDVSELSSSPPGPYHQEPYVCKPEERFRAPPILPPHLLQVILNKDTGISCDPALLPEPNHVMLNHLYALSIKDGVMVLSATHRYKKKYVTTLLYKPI

[4] = target: T4, 5'-AMP-activated protein kinase subunit beta-2 (Homo sapiens, UniProt O43741); test: Activation of human recombinant AMPK beta2 expressed in African green monkey COS7 cells or baculovirus infected insect cells assessed as increase in biotinylated […] (1 to 120 residues) peptide phosphorylation at Ser-79 residue measured after 60 mins by Alphascreen assay; set-up: species or system COS-7
T4 sequence (O43741 whole entry): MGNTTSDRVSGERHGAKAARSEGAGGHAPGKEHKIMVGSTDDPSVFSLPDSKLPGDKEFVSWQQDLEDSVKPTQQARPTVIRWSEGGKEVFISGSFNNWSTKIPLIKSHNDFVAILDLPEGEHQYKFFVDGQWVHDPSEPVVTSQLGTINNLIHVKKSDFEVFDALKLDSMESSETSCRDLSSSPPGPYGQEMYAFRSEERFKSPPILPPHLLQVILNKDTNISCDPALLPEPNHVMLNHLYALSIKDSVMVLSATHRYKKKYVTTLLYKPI

[5] = target: T1, AMP-activated protein kinase (AMPK) alpha-1/beta-1/gamma-1; test: Activation of human recombinant AMPK alpha1/beta1/gamma1 expressed in Escherichia coli BL21-CodonPlus (DE3)-RIPL using SAMS peptide after 10 mins in presence of [gamma33P]ATP by scintillation counting
[6] = target: T1, AMP-activated protein kinase (AMPK) alpha-1/beta-1/gamma-1; test: Activation of full length human recombinant AMPK alpha1/beta1/gamma1 expressed in baculovirus infected sf21 cells using 5'-FAM-SAMS peptide substrate after 45 mins by fluorescence assay
[7] = target: T5, AMP-activated protein kinase (AMPK) alpha-1/beta-1/gamma-1 (Homo sapiens) (UniProt P54619+Q9Y478+Q13131); test: Activation of full length human recombinant AMPK alpha1/beta1/gamma1 expressed in baculovirus infected sf21 cells using 5'-FAM-SAMS peptide substrate after 45 mins by fluorescence assay relative to AMP
[8] = target: T5, AMP-activated protein kinase (AMPK) alpha-1/beta-1/gamma-1 (Homo sapiens); test: Activation of full length human recombinant AMPK alpha1/beta1/gamma1 preincubated for 10 mins followed by FL-Peptide 7 addition measured after 2 hrs by fluorescence assay; format: protein-complex assay
[9] = target: T6, AMPK alpha2/beta2/gamma1 (Homo sapiens) (UniProt P54646+O43741+P54619); test: Activation of full length human His6-tagged AMPK alpha2/beta2/gamma1 expressed in Escherichia coli BL21-CodonPlus (DE3)-RIPL preincubated for 10 mins followed by FL-Peptide 7 substrate addition measured after 2 hrs by fluorescence assay
[10] = target: T5, AMP-activated protein kinase (AMPK) alpha-1/beta-1/gamma-1 (Homo sapiens); test: Activation of full length human recombinant AMPK alpha1/beta1/gamma1 preincubated for 10 mins followed by FL-Peptide 7 addition measured after 2 hrs by fluorescence assay relative to AMP; format: protein-complex assay
[11] = target: T6, AMPK alpha2/beta2/gamma1 (Homo sapiens); test: Activation of full length human His6-tagged AMPK alpha2/beta2/gamma1 expressed in Escherichia coli BL21-CodonPlus (DE3)-RIPL preincubated for 10 mins followed by FL-Peptide 7 substrate addition measured after 2 hrs by fluorescence assay relative to AMP
[12] = target: T1, AMP-activated protein kinase (AMPK) alpha-1/beta-1/gamma-1; test: Binding affinity for full length human N-terminal His/BAP-tagged AMPK alpha1/beta1/gamma1 expressed in Escherichia coli BL21-CodonPlus by surface plasmon resonance method
[13] = target: AMPK alpha2/beta1/gamma1 (Homo sapiens) (UniProt P54646+P54619+Q9Y478); test: Activation of full length human recombinant AMPK alpha2/beta1/gamma1 expressed in baculovirus infected sf21 cells using 5'-FAM-SAMS peptide substrate after 45 mins by fluorescence assay relative to AMP
[14] = target: T5, AMP-activated protein kinase (AMPK) alpha-1/beta-1/gamma-1 (Homo sapiens); test: (§1) Activation of human recombinant AMPK GST-tagged alpha1/Myc-tagged beta1/HA-tagged gamma1 expressed in African green monkey COS7 cells assessed as increase in SAMS peptide phosphorylation measured after 10 mins in presence of [gamma33P]ATP by scintillation counting method relative to control; format: cell-based; settings: COS-7
[15] = target: T1, AMP-activated protein kinase (AMPK) alpha-1/beta-1/gamma-1; test: as §1; format: cell-based, COS-7
[16] = target: T6, AMPK alpha2/beta2/gamma1 (Homo sapiens); test: Activation of full length human His6-tagged AMPK alpha2/beta2/gamma1 expressed in Escherichia coli BL21-CodonPlus (DE3)-RIPL using FL-Peptide 7 substrate incubated for 2 hrs by fluorescence assay
[17] = target: T6, AMPK alpha2/beta2/gamma1 (Homo sapiens); test: Activation of full length human His6-tagged AMPK alpha2/beta2/gamma1 expressed in Escherichia coli BL21-CodonPlus (DE3)-RIPL using FL-Peptide 7 substrate incubated for 2 hrs by fluorescence assay relative to AMP
[18] = target: AMP-activated protein kinase, AMPK; test: Activation of recombinant AMPK (unknown origin) after 30 mins in presence of [gamma33P]ATP by scintillation proximity assay; set-up: species or system Homo sapiens
[19] = target: T1, AMP-activated protein kinase (AMPK) alpha-1/beta-1/gamma-1; test: Activation of full length human recombinant AMPK alpha1/beta1/gamma1 expressed in baculovirus infected sf21 cells using SAMS peptide substrate after 30 mins in presence of [33P]ATP by TopCount analysis
[20] = target: T5, AMP-activated protein kinase (AMPK) alpha-1/beta-1/gamma-1 (Homo sapiens); test: Activation of full length human recombinant AMPK alpha1/beta1/gamma1 expressed in baculovirus infected sf21 cells using SAMS peptide substrate after 30 mins in presence of [33P]ATP by TopCount analysis relative to AMP
[21] = species: Rattus norvegicus
Description: Allosteric activation of rat liver AMPK in presence of ATP relative to control

[22] = species: Rattus norvegicus; test: Activation of rat liver AMPK assessed as increase in biotinylated AMARAA peptide phosphorylation at 200 uM measured after 30 mins by DELFIA assay relative to control
[23] = Activation of rat liver AMPK assessed as increase in 33P-phosphorylation of SAMS peptide
[24] = target: T7, 5'-AMP-activated protein kinase catalytic subunit alpha-2/beta-1/gamma-2 (Homo sapiens, UniProt P54646+Q9UGJ0+Q9Y478); test: (§2) Activation of recombinant human His-tagged AMPK alpha2 (2 to 552 residues)/beta1 (2 to 270 residues)/gamma2 (2 to 569 residues) expressed in baculovirus infected sf21 cells preincubated for 30 mins followed by biotinylated ACC-CREBp peptide substrate addition measured after 45 mins by HTRF assay
Target sequence in this assay (P54646 whole entry, one chain of several, the tested form may be a part): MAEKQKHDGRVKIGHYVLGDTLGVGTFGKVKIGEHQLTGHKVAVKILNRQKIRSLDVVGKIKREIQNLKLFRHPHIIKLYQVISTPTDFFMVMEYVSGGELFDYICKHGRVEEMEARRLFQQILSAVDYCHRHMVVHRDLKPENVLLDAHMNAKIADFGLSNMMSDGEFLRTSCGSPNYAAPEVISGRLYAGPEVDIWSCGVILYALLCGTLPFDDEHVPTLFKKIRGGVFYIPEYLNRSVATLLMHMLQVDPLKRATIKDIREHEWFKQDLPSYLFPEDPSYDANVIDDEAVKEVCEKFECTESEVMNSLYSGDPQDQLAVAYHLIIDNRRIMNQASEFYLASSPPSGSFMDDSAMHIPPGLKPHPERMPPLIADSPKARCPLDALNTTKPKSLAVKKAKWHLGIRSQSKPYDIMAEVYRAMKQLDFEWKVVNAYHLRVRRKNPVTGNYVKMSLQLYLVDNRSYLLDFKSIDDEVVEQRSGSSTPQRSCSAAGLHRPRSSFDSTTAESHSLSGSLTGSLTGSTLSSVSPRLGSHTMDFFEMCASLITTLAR
Target sequence in this assay (Q9UGJ0 whole entry, one chain of several, the tested form may be a part): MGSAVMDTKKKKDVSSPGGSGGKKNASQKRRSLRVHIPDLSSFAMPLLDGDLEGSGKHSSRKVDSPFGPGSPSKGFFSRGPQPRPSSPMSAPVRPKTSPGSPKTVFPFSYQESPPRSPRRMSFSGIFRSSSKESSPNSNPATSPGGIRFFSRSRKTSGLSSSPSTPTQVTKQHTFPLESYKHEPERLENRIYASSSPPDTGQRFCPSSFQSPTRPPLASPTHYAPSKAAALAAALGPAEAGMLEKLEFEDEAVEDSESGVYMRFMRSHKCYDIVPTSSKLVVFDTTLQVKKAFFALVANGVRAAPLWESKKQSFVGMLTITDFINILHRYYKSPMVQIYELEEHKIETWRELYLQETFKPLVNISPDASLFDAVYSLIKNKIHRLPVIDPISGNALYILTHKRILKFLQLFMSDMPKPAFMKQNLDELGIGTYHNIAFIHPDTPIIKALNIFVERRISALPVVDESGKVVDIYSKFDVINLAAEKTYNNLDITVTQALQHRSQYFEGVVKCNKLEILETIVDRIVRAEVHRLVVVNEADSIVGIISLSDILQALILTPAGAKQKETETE

[25] = target: T8, 5'-AMP-activated protein kinase subunit beta-1 (Homo sapiens) (UniProt Q9Y478); test: Activation of AMPK beta1 in human HepG2 cells assessed as increase in phospho-ACC1 level at 1 uM after 2 hrs by ELISA relative to control; format: cell-based
T8 sequence (whole entry): T3 sequence (Q9Y478 whole entry)

[26] = target: T9, 5'-AMP-activated protein kinase subunit beta-2 (Mus musculus) (UniProt Q6PAM0); test: Activation of AMPK beta2 in mouse C2C12 myotubes assessed as increase in phospho-ACC1 level at 1 uM after 2 hrs by ELISA relative to control
T9 sequence (whole entry): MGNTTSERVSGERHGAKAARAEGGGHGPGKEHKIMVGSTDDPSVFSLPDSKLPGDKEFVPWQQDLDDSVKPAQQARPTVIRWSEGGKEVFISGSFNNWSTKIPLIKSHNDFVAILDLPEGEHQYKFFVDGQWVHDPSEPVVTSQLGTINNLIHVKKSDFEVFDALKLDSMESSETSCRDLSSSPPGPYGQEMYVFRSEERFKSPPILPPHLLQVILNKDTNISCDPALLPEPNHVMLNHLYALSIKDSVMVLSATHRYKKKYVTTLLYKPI

[27] = target: T7, 5'-AMP-activated protein kinase catalytic subunit alpha-2/beta-1/gamma-2; test: as §2, with “assay relative to AMP” for “assay”
Target sequence in this assay (P54646 whole entry, one chain of several, the tested form may be a part): as the sequence (P54646 whole entry, one chain of several, the tested form may be a part) above
Target sequence in this assay (Q9UGJ0 whole entry partner, one chain of several, the tested form may be a part): as the sequence (Q9UGJ0 whole entry, one chain of several, the tested form may be a part) above

[28] = target: T2, AMP-activated protein kinase, AMPK (Homo sapiens); test: Activation of AMPK (unknown origin) assessed as residual activity at 30 uM using AMARAA peptide after 30 mins by DELFIA assay relative to control
[29] = system: Mus musculus; test: Antidiabetic activity in […] ob/ob mouse model assessed as reduction in blood glucose level at 150 mg/kg, po bid for 8 days relative to control; format: functional; settings: 192 h
[30] = target: AMPK alpha1/beta1/gamma2 (Homo sapiens) (UniProt Q9UGJ0+Q9Y478+Q13131); test: Activation of human recombinant AMPK alpha1/beta1/gamma2 expressed in Escherichia coli assessed as residual activity at 30 uM using AMARAA peptide relative to control
[31] = target: T1, AMP-activated protein kinase (AMPK) alpha-1/beta-1/gamma-1; test: (§3) Activation of full length human phosphorylated His-tagged AMPK alpha1/beta1/gamma1 expressed in Escherichia coli BL21-CodonPlus (DE3)-RIPL using SAMS peptide substrate preincubated for 15 mins followed by PP2A addition for 90 mins followed by substrate addition measured after 60 mins in presence of [33P]ATP by scintillation counting method
[32] = target: T5, AMP-activated protein kinase (AMPK) alpha-1/beta-1/gamma-1 (Homo sapiens); test: as §3, with “method relative to AMP” for “method”

T5 sequence (P54619 whole entry, one chain of several): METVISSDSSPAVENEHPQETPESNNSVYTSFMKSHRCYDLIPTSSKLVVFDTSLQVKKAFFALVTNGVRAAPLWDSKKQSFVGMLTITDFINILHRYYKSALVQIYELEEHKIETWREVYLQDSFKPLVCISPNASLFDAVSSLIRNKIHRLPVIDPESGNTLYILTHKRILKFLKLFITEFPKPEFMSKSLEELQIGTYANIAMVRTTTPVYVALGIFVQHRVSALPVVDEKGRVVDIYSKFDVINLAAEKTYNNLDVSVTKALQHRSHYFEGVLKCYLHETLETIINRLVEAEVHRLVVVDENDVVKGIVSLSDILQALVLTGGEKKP
T5 sequence (Q13131 whole entry partner, one chain of several): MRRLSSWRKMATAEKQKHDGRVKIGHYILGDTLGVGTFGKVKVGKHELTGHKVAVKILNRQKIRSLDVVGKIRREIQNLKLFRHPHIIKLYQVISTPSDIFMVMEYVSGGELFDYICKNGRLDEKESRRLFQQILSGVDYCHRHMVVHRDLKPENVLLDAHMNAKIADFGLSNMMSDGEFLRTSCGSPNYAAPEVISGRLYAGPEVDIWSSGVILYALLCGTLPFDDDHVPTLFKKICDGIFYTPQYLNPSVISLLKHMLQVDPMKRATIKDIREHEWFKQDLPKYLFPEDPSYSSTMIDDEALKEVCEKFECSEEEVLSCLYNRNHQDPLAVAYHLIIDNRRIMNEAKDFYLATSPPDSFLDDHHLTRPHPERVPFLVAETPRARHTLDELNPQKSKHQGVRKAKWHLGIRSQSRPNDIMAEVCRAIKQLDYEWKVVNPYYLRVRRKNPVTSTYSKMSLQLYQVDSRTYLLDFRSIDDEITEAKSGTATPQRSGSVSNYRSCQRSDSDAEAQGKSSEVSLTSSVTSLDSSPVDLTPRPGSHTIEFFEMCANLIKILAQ
T1 sequence (P54619 whole entry, one chain of several): as the sequence (P54619 whole entry, one chain of several) above
T1 sequence (Q13131 whole entry, one chain of several): as the sequence (Q13131 whole entry partner, one chain of several) above
T6 sequence (P54619 whole entry, looked up, one chain of several): as the sequence (P54619 whole entry, one chain of several) above
T6 sequence (P54646 whole entry, looked up, one chain of several): as the sequence (P54646 whole entry, one chain of several, the tested form may be a part) above
Sequence of AMPK alpha1/beta1/gamma2 (Homo sapiens) (Q13131 whole entry partner, one chain of several): as the sequence (Q13131 whole entry partner, one chain of several) above
Sequence of AMPK alpha1/beta1/gamma2 (Homo sapiens) (Q9UGJ0 whole entry, one chain of several): as the sequence (Q9UGJ0 whole entry, one chain of several, the tested form may be a part) above
Sequence of AMPK alpha2/beta1/gamma1 (Homo sapiens) (P54619 whole entry partner, one chain of several): as the sequence (P54619 whole entry, one chain of several) above
Sequence of AMPK alpha2/beta1/gamma1 (Homo sapiens) (P54646 whole entry, one chain of several): as the sequence (P54646 whole entry, one chain of several, the tested form may be a part) above

Cc1cc(-c2c(O)c3cc(-c4ccc(N(C)C)cc4)c(Cl)cc3[nH]c2=O)on1
EC50 [1]: 39.8 nM

CC1(C)CC(c2ccccc2NS(=O)(=O)c2cccc(F)c2)Nc2ccc(C(F)(F)F)cc21 (stereo unspecified)
EC30 [2]: 1140 nM

O=C(O)c1c[nH]c2ccc(-c3ccc(-c4c(O)cccc4O)cc3)cc12
EC50 [3]: < 500 nM
EC50 [4]: < 5000 nM

Cc1cc(-c2ccc(/C=C3\S/C(=N\c4ccc(Cl)c(C(=O)O)c4)NC3=O)o2)c([N+](=O)[O-])cc1C
EC50 [5]: 300 nM

CC(C)(O)c1ccc(-c2cc3nc(O[C@H]4CO[C@H](CO)[C@@H](O)C4)[nH]c3cc2Cl)cc1
EC50 [6]: 4 nM
%max [7]: 379%

CC(C)(C(=O)O)[C@H]1CC[C@H](Oc2nc3nc(-c4ccc(C5(CO)CC5)cc4)c(Cl)cc3[nH]2)CC1
EC150 [8]: 5.6 nM
EC150 [9]: 5 nM
%max [10]: 257%
%max [11]: 237%

Cc1ccc(Oc2nc3nc(-c4ccc(N5CCCC5)cc4)c(Cl)cc3[nH]2)cc1C(=O)O
EC50 [6]: 1 nM
%max [7]: 681%

CC1(C)Cc2cc(C(=O)O)ccc2NC1c1cccc(N2C(=O)OCC2(C)C)c1 (stereo unspecified)
EC30 [2]: 1150 nM

Nc1nc(-c2ccc(-n3c(Cl)cc4[nH]c(=O)n(-c5cccc(C(=O)O)c5)c(=O)c43)cc2)cs1
EC50 [1]: 631 nM

N#Cc1c(O)c2c(-c3ccc(-c4ccccc4O)cc3)c(Cl)sc2[nH]c1=O
Kd [12]: 74 nM

N#Cc1ccc(-c2ccc(-c3nc4nc(O[C@@H]5CO[C@H]6[C@@H]5OC[C@H]6O)[nH]c4cc3Cl)cc2)c(F)c1
%max [13]: 304%

C(=N\c1cnc2ccccc2c1)/c1ccc2ccccc2n1
fold change (FC) [14]: 2.7
EC50 [15]: 1800 nM

O[C@@H]1CO[C@H]2[C@@H]1OC[C@H]2Oc1cc2nc(-c3c(F)cc(N4CCOCC4)cc3F)c(F)cc2[nH]1
EC150 [16]: 8.8 nM
Emax [17]: 729%

O=C(O)c1ccc2c(c1)C1(CC1)CC(c1cc(Cl)ccc1F)N2 (stereo unspecified)
EC50 [18]: 1240 nM

Cc1ccc(Oc2nc3cc(-c4ccc(N5CCOCC5)cc4)c(Cl)cc3[nH]2)cc1P(=O)(O)O
EC50 [19]: 1.2 nM
%max [20]: 224%

O=C(O)c1ccccc1O
A0.5 [21]: 1 mM

COc1ccc(NC(=O)Nc2ccc(Cn3cnc(O)c3C(N)=O)cc2)cc1
Activity [22]: 229%

Cc1ccc(Oc2nc3nc(-c4ccc(-c5ccccc5O)cc4)c(Cl)cc3[nH]2)cc1C(=O)O
EC150 [8]: 0.42 nM
EC150 [9]: 4.3 nM
%max [10]: 355%
%max [11]: 292%

N#Cc1c(O)c2c(-c3ccc(-c4ccccc4O)cc3)csc2[nH]c1=O
EC50 [23]: 800 nM

COc1cc(C(O)=C2C(=O)Nc3cc(Cl)c(-c4ccc5c(ccn5C)c4)cc32)on1
EC50 [24]: 0.7 nM
Activity [25]: 132%
Activity [26]: 114%
Emax [27]: 256%

O=c1[nH]c2sc(Cl)c(-c3ccc4c(c3O)CCCC4)c2c(O)c1-c1ccccc1
Activity [28]: > 130%
inhibition in vivo at 150 mg/kg [29]: 41%

Cc1ccc(Oc2nc3cc(-c4ccc5c(ccn5C)c4)c(Cl)cc3[nH]2)cc1C(=O)O
%max [20]: 241%

Cc1ccc(-c2c(O)c3c(-c4ccc5ccccc5c4O)c(Cl)sc3[nH]c2=O)cc1
Activity [30]: > 90%

O=C(O)c1n[nH]c2cc(Cl)c(-c3ccc(C4(O)CCC4)cc3)cc12
EC50 [31]: 8.3 nM
%max [32]: 80%
